Target: S. pneumoniae Topoisomerase IV ATPase (ParE) (Streptococcus pneumoniae serotype 4, UniProt Q59961)
Assay: S. pneumoniae Topoisomerase IV ATPase inhibition
Type: biochemical
Conditions: values marked * are an average of two or more data points; for inhibition at 13 µM: read-out: % Inh (13 μM) of S. pneumoniae Topoisomerase IV ATPase
Outline: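 Phosphate release by ParE ATPase from S. pneumoniae read colorimetrically (malachite green, 650 nm), enzyme 1.25 nM, ATP 160 μM, salmon sperm DNA present, buffer 20 mM Tris pH 8.0 with 8 mM MgCl2. IC50 over 10 compound concentrations, EDTA (20 μM) and DMSO controls defining inhibition range.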

Chain of S. pneumoniae Topoisomerase IV ATPase (ParE) (Q59961 whole entry): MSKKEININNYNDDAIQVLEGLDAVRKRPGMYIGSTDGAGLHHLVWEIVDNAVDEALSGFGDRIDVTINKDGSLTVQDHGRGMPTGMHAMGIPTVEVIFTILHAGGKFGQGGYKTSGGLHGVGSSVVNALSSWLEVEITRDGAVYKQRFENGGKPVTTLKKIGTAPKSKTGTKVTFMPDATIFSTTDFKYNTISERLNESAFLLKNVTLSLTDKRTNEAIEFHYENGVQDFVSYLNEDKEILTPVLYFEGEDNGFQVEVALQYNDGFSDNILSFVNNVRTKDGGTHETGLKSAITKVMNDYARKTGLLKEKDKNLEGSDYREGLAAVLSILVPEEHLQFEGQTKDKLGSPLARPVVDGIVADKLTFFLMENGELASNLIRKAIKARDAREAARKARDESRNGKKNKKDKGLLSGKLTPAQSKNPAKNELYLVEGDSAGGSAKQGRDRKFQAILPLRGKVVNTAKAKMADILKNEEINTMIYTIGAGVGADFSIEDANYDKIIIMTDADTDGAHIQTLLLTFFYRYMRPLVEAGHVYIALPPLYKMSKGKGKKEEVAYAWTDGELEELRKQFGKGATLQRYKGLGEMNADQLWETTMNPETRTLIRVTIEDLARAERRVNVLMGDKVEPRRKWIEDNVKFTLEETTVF

SMILES | inhibition at 13 µM | % Inh (13 μM) of S. pneumoniae Topoisomerase IV ATPase (13 µM)
COc1ncc(-c2cnc(Nc3cc(C)cc(Cl)c3)nc2-n2ccc(C(F)(F)F)n2)cc1C(=O)O [Example 799, 5-{2-[(3-chloro-5-methylphenyl)amino]-4-[3-(trifluoromethyl)-1H-pyrazol-1-yl]pyrimidin-5-yl}-2-methoxypyridine-3-carboxylic acid] | 100% | –
Fc1ccc(Nc2ncc(-c3cncnc3)c(NCCN3CCOCC3)n2)cc1Cl [Example 43, N^2-(3-chloro-4-fluorophenyl)-N^4-(2-morpholin-4-ylethyl)-5-pyrimidin-5-ylpyrimidine-2,4-diamine] | 74.3% | –
CCC(C)Nc1nc(Nc2ccc(F)c(Cl)c2)ncc1-c1cc2ccccc2o1 (stereo not shown) [Example 1108, 5-(1-benzofuran-2-yl)-N′-butan-2-yl-N-(3-chloro-4-fluorophenyl)pyrimidine-2,4-diamine] | 18% | –
O=C(O)COc1ccc(-c2cnc(Nc3ccc(F)c(Cl)c3)nc2N2CCOCC2)cc1 [Example 489, (4-{2-[(3-chloro-4-fluorophenyl)amino]-4-(morpholin-4-yl)pyrimidin-5-yl}phenoxy)acetic acid] | 97% | –
COc1ccc(-c2cnc(Nc3ccc(F)c(Cl)c3)nc2NCCCN(C)C)cc1 [Example 25, N^2-(3-chloro-4-fluorophenyl)-N^4-[3-(dimethylamino)propyl]-5-(4-methoxyphenyl)-pyrimidine-2,4-diamine] | 90.5% | –
CS(=O)(=O)NC(=O)c1cncc(-c2cnc(Nc3ccc(F)c(Cl)c3)nc2-n2ccc(C(F)(F)F)n2)c1 [Example 874, 5-(2-(3-chloro-4-fluorophenylamino)-4-(3-(trifluoromethyl)-1H-pyrazol-1-yl)pyrimidin-5-yl)-N-(methylsulfonyl)nicotinamide] | 100% | –
CCCS(=O)(=O)NC(=O)c1cc(-c2cnc(Nc3cc(OC)cc(OC)c3)nc2-n2ccc(C(F)(F)F)n2)cnc1OC [Example 816, 5-{2-[(3,5-dimethoxyphenyl)amino]-4-[3-(trifluoromethyl)-1H-pyrazol-1-yl]pyrimidin-5-yl}-2-methoxy-N-(propylsulfonyl)pyridine-3-carboxamide] | 100% | –
CN1CCC(Oc2ncc(-c3cnc(Nc4ccc(F)c(Cl)c4)nc3-n3ccc(C(F)(F)F)n3)cc2C(=O)O)C1 (stereo not shown) [Example 789, 5-{2-[(3-chloro-4-fluorophenyl)amino]-4-[3-(trifluoromethyl)-1H-pyrazol-1-yl]pyrimidin-5-yl}-2-[(1-methylpyrrolidin-3-yl)oxy]pyridine-3-carboxylic acid] | 99% | –
Cc1cc(C)cc(Nc2ncc(-c3cccc(/C=C/C(=O)O)c3)c(N3CCOCC3)n2)c1 [Example 405, (E)-3-{3-[2-(3,5-Dimethyl-phenylamino)-4-morpholin-4-yl-pyrimidin-5-yl]-phenyl}-acrylic acid] | 85% | –
Cc1cc(C(F)(F)F)nn1-c1nc(Nc2ccc3c(c2)CCC3)ncc1-c1cncc(C(=O)O)c1 [Example 669, 5-{2-(2,3-dihydro-1H-inden-5-ylamino)-4-[5-methyl-3-(trifluoromethyl)-1H-pyrazol-1-yl]pyrimidin-5-yl}pyridine-3-carboxylic acid] | 68% | –
O=C(O)/C=C/c1cccc(-c2cnc(Nc3ccc(F)c(Cl)c3)nc2N[C@H]2CCOC2)c1 [Example 958] | – | 93%
O=C(O)c1cncc(-c2cnc(Nc3ccc(F)c(Cl)c3)nc2NCc2nc3ccccc3[nH]2)c1 [Example 241, 5-[4-(1H-benzimidazol-2-ylmethylamino)-2-[(3-chloro-4-fluorophenyl)amino]-pyrimidin-5-yl]pyridine-3-carboxylic acid] | 71.5% | –
COCC(COC)NC(=O)c1cncc(-c2cnc(Nc3ccc(F)c(Cl)c3)nc2-n2nc(C(F)(F)F)cc2C)c1 [Example 935, 5-(2-(3-chloro-4-fluorophenylamino)-4-(5-methyl-3-(trifluoromethyl)-1H-pyrazol-1-yl)pyrimidin-5-yl)-N-(1,3-dimethoxypropan-2-yl)nicotinamide] | 100% | –
Cc1cc(C(F)(F)F)nn1-c1nc(Nc2cccc(S(C)(=O)=O)c2)ncc1-c1cncc(C(=O)O)c1 [Example 644, 5-(2-{[3-(methylsulfonyl)phenyl]amino}-4-[5-methyl-3-(trifluoromethyl)-1H-pyrazol-1-yl]pyrimidin-5-yl)pyridine-3-carboxylic acid] | 84% | –
CN(C)CCn1cc(C(=O)O)c(=O)c2cc(-c3cnc(Nc4ccc(F)c(Cl)c4)nc3-n3ccc(C(F)(F)F)n3)ccc21 [Example 1070, 6-(2-(3-Chloro-4-fluorophenylamino)-4-(3-(trifluoromethyl)-1H-pyrazol-1-yl)pyrimidin-5-yl)-1-(2-(dimethylamino)ethyl)-4-oxo-1,4-dihydroquinoline-3-carboxylic acid] | 93% | –
CC(=O)NC1CCN(c2nc(Nc3ccc(F)c(Cl)c3)ncc2-c2cncc(C(=O)O)c2)CC1 [Example 256, 5-[4-(4-acetamidopiperidin-1-yl)-2-[(3-chloro-4-fluorophenyl)amino]-pyrimidin-5-yl]pyridine-3-carboxylic acid] | 78.8% | –

SMILES | inhibition at 13 µM | % Inh (13 μM) of S. pneumoniae Topoisomerase IV ATPase (13 µM)
O=C(O)/C=C/c1cccc(-c2cnc(Nc3ccc(F)c(Cl)c3)nc2NCCc2nc3ccccc3[nH]2)c1 [Example 265, (2E)-3-[3-(4-{[2-(1H-benzimidazol-2-yl)ethyl]amino}-2-[(3-chloro-4-fluorophenyl)amino]pyrimidin-5-yl)phenyl]prop-2-enoic acid] | 84.9% | –
COc1cc(Cl)c(C)cc1Nc1ncc(-c2cccc(/C=C/C(=O)O)c2)c(NCCCN(C)C)n1 [Example 911, (E)-3-(3-(2-(4-chloro-2-methoxy-5-methylphenylamino)-4-(3-(dimethylamino)propylamino)pyrimidin-5-yl)phenyl)acrylic acid] | 58% | –
COc1cc(Nc2ncc(-c3cnc(OC)c(C(=O)NCCS(C)(=O)=O)c3)c(-n3nc(C(F)(F)F)cc3C)n2)cc(OC)c1 [Example 812, 5-{2-[(3,5-dimethoxyphenyl)amino]-4-[5-methyl-3-(trifluoromethyl)-1H-pyrazol-1-yl]pyrimidin-5-yl}-2-methoxy-N-[2-(methylsulfonyl)ethyl]pyridine-3-carboxamide] | 100% | –
COCCn1cc(-c2cnc(Nc3ccc(F)c(Cl)c3)nc2-n2ccc(C(F)(F)F)n2)cc(C(=O)O)c1=O [Example 1081, 5-(2-(3-Chloro-4-fluorophenylamino)-4-(3-(trifluoromethyl)-1H-pyrazol-1-yl)pyrimidin-5-yl)-1-(2-methoxyethyl)-2-oxo-1,2-dihydropyridine-3-carboxylic acid] | 100% | –
NC(=O)c1cncc(-c2cnc(Nc3ccc(F)c(Cl)c3)nc2-n2cc(-c3ccncn3)cn2)c1 [Example 543, 5-{2-[(3-chloro-4-fluorophenyl)amino]-4-[4-(pyrimidin-4-yl)-1H-pyrazol-1-yl]pyrimidin-5-yl}pyridine-3-carboxamide] | 68% | –
O=C(O)/C=C/c1cccc(-c2cnc(Nc3ccc(F)c(Cl)c3)nc2-n2cc(-c3ccncn3)cn2)c1 [Example 568, (2E)-3-(3-{2-[(3-chloro-4-fluorophenyl)amino]-4-[4-(pyrimidin-4-yl)-1H-pyrazol-1-yl]pyrimidin-5-yl}phenyl)prop-2-enoic acid] | 100% | –
COCCCNc1nc(Nc2ccc(F)c(Cl)c2)ncc1-c1cccc(/C=C/C(=O)O)c1 [Example 293, (E)-3-(3-(2-(3-chloro-4-fluorophenylamino)-4-(3-methoxypropylamino)-pyrimidin-5-yl)phenyl)acrylic acid] | 85.3% | –
CONC(=O)c1cncc(-c2cnc(Nc3cc(OC)cc(OC)c3)nc2-n2nc(C(F)(F)F)cc2C)c1 [Example 681, 5-{2-[(3,5-dimethoxyphenyl)amino]-4-[5-methyl-3-(trifluoromethyl)-1H-pyrazol-1-yl]pyrimidin-5-yl}-N-methoxypyridine-3-carboxamide] | 100% | –
O=C(O)c1cncc(-c2cnc(Nc3ccc(F)c(Cl)c3)nc2N2CCCC2)c1 [Example 280, 5-(2-(3-chloro-4-fluorophenylamino)-4-(pyrrolidin-1-yl)pyrimidin-5-yl)nicotinic acid] | 83.4% | –
COc1cc(Nc2ncc(-c3cnc(-n4cncn4)c(C(=O)O)c3)c(-n3ccc(C(F)(F)F)n3)n2)cc(OC)c1 [Example 588, 5-(2-(3,5-dimethoxyphenylamino)-4-(3-(trifluoromethyl)-1H-pyrazol-1-yl)pyrimidin-5-yl)-2-(1H-1,2,4-triazol-1-yl)nicotinic acid] | 100% | –
COCCCNc1nc(Nc2ccc(F)c(Cl)c2)ncc1-c1nc(-c2cncn2C)cs1 [Example 504, N^2-(3-chloro-4-fluorophenyl)-N^4-(3-methoxypropyl)-5-[4-(1-methyl-1H-imidazol-5-yl)-1,3-thiazol-2-yl]pyrimidine-2,4-diamine] | 83% | –
COCCCNc1nc(Nc2ccc(F)c(Cl)c2)ncc1-c1nc(-c2ccccn2)c(C(=O)O)s1 [Example 511, 2-{2-[(3-chloro-4-fluorophenyl)amino]-4-[(3-methoxypropyl)amino]pyrimidin-5-yl}-4-(pyridin-2-yl)-1,3-thiazole-5-carboxylic acid] | 100% | –
COc1cc(Nc2ncc(-c3cccc(/C=C/C(=O)O)c3)c(N3CCOCC3)n2)cc(OC)c1 [Example 351, (E)-3-(3-(2-(3,5-dimethoxyphenylamino)-4-morpholinopyrimidin-5-yl)phenyl) acrylic acid] | 82.8% | –
CN(C)CCCNc1nc(Nc2ccc(F)c(Cl)c2)ncc1-c1cccnc1 [Example 23, N^2-(3-chloro-4-fluorophenyl)-N^4-[3-(dimethylamino)propyl]-5-pyridin-3-ylpyrimidin-2,4-diamine] | 95.8% | –
Fc1ccc(Nc2ncc(-c3cncnc3)c(N3CCCCCC3)n2)cc1Cl [Example 213, 4-(azepan-1-yl)-N-(3-chloro-4-fluorophenyl)-5-pyrimidin-5-ylpyrimidin-2-amine] | 55.8% | –
